Laboratory results reported in ChEMBL document CHEMBL5370665, “Insight from Linker Investigations: Discovery of a Novel Phenylbenzothiazole Necroptosis Inhibitor Targeting Receptor-Interacting Protein Kinase 1 (RIPK1) from a Phenoxybenzothiazole Compound with Dual RIPK1/3 Targeting Activity” (J Med Chem, 2023).
Calls of active or inactive are those of the source. The calls are words filed in the database; no cut-off is given here.

How the values were obtained:
[1] = system: HT-29; test: Anti-necroptic activity against human HT-29 cells assessed as inhibition of TCZ (human TNFalpha, cycloheximide and z-VAD-FMK) induced necroptosis at 125 to 500 nM pretreated with compound followed by TCZ stimulation for 18 hrs by CellTiter-Glo Luminescent cell viability assay; format: functional, cell-based; details: dose 125-500 nM
[2] = system: L929; test: Anti-necroptic activity against mouse L929 cells assessed as inhibition of […] (mouse TNFalpha, z-VAD-FMK) induced necroptosis at 15 to 500 nM pretreated with compound followed by TZ stimulation for 6 hrs by CellTiter-Glo Luminescent cell viability assay; format: functional, cell-based; details: dose lower […], dose upper 500.0 nM
[3] = system: HT-29; test: Anti-apoptotic activity against human HT-29 cells assessed as inhibition of TC (human TNFalpha, cycloheximide) induced apoptosis upto 20 uM pretreated with compound followed by TC stimulation for 36 hrs by CellTiter-Glo Luminescent cell viability assay; format: functional, cell-based
[4] = biological target: T1, Receptor-interacting serine/threonine-protein kinase 1 (Homo sapiens) (UniProt Q13546); test: Inhibition of RIPK1 phosphorylation in TSZ induced human HT-29 cells at 1 to 1000 nM pretreated with compound followed by TSZ stimulation for 6 hrs by Western blot analysis; format: cell-based; details: dose 1-1000 nM
T1 sequence (whole entry): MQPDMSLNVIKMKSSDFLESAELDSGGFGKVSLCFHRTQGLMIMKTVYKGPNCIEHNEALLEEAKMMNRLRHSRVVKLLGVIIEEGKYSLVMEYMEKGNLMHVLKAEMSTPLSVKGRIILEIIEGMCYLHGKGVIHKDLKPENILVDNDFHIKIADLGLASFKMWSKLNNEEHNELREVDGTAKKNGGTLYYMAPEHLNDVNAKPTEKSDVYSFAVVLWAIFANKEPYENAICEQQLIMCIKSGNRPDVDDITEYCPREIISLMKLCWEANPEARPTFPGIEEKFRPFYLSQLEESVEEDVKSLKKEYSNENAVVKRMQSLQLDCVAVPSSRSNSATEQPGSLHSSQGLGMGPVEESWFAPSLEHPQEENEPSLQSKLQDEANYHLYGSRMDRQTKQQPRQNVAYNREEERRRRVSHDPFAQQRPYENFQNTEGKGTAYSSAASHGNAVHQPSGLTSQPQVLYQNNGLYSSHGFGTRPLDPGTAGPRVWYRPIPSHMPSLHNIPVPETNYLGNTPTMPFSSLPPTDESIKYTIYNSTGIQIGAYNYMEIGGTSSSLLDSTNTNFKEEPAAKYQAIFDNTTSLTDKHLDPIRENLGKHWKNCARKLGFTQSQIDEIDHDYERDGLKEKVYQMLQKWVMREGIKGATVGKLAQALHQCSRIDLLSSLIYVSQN

[5] = system: Mus musculus; test: Anti-inflammatory activity against C57BL/6J mouse model of TNFalpha-induced systemic inflammatory response syndrome (SIRS) assessed as increase in survival rate at 2.5 mg/kg,po 2 hrs prior to mTNFalpha and z-VAD-FMK stimulation and measured upto 24 hrs; format: functional; details: time 26 hrs
[6] = system: Mus musculus; test: Anti-inflammatory activity against C57BL/6J mouse model of TNFalpha-induced systemic inflammatory response syndrome (SIRS) assessed as decrease in IL-6 level in heart at 1.25 to 5 mg/kg,po 2 hrs prior to mTNFalpha and z-VAD-FMK stimulation for 8 hrs by ELISA; format: functional, organism-based; details: dose 1.25-5 mg/kg, time 10.0 hrs
[7] = system: Mus musculus; test: Anti-inflammatory activity against C57BL/6J mouse model of TNFalpha-induced systemic inflammatory response syndrome (SIRS) assessed as decrease in IL-6 level in spleen at 1.25 to 5 mg/kg,po 2 hrs prior to mTNFalpha and z-VAD-FMK stimulation for 8 hrs by ELISA; format: functional, organism-based; details: dose 1.25-5 mg/kg, time 10.0 hrs
[8] = system: Mus musculus; test: Anti-inflammatory activity against C57BL/6J mouse model of TNFalpha-induced systemic inflammatory response syndrome (SIRS) assessed as decrease in IL-1beta level in brain at 1.25 to 5 mg/kg,po 2 hrs prior to mTNFalpha and z-VAD-FMK stimulation for 8 hrs by ELISA; format: functional, organism-based; details: dose 1.25-5 mg/kg, time 10.0 hrs
[9] = system: Mus musculus; test: Anti-inflammatory activity against C57BL/6J mouse model of TNFalpha-induced systemic inflammatory response syndrome (SIRS) assessed as decrease in IL-1beta level in lung at 1.25 to 5 mg/kg,po 2 hrs prior to mTNFalpha and z-VAD-FMK stimulation for 8 hrs by ELISA; format: functional, organism-based; details: dose 1.25-5 mg/kg, time 10.0 hrs
[10] = system: Mus musculus; test: Anti-inflammatory activity against C57BL/6J mouse model of TNFalpha-induced systemic inflammatory response syndrome (SIRS) assessed as decrease in IL-1beta level in intestine at 1.25 to 5 mg/kg,po 2 hrs prior to mTNFalpha and z-VAD-FMK stimulation for 8 hrs by ELISA; format: functional, organism-based; details: dose 1.25-5 mg/kg, time 10.0 hrs
[11] = system: Mus musculus; test: Anti-inflammatory activity against C57BL/6J mouse model of TNFalpha-induced systemic inflammatory response syndrome (SIRS) assessed as decrease in serum IL-1beta level at 1.25 to 5 mg/kg,po 2 hrs prior to mTNFalpha and z-VAD-FMK stimulation for 8 hrs by ELISA; format: functional, organism-based; details: dose 1.25-5 mg/kg, time 10.0 hrs
[12] = system: Mus musculus; test: Anti-inflammatory activity against C57BL/6J mouse model of TNFalpha-induced systemic inflammatory response syndrome (SIRS) assessed as decrease in serum IL-6 level at 5 mg/kg,po 2 hrs prior to mTNFalpha and z-VAD-FMK stimulation for 8 hrs by ELISA; format: functional, organism-based; details: time 10.0 hrs
[13] = Acute toxicity in mouse assessed as pathological damage in liver at 100 to 200 mg/kg,IG and measured after 14 days by H and E staining based microscopy; format: organism-based; details: in vivo, po, 336 h, dose 100-200 mg/kg, time 14 day

O=C(Cc1cccc(OC(F)(F)F)c1)Nc1cc(-c2ccc3nc(NC(=O)C4CC4)sc3c2)ccc1F
Activity [1]: Dose-Dependent Effect | Activity [2]: Active | Activity [3]: inactive | inhibition [4]: Dose-Dependent Effect | survival at 2.5 mg/kg [5]: 80% | Activity [6]: Dose-Dependent Effect | Activity [7]: Dose-Dependent Effect | Activity [8]: inactive | Activity [9]: Active | Activity [10]: Active | Activity [11]: Active | Activity [12]: Active | Activity [13]: Non-Toxic
